Target: recombinant human MGAT2 (Homo sapiens (Human), UniProt Q3SYC2)
Experiment: Measurement of human MGAT2 inhibitory activity
Assay type: biochemical
Conditions: read-out: IC50 (concentration exhibiting 50% enzyme inhibition), Table 53
Procedure, shortened: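 Membrane fraction of Sf9 cells expressing N-terminally Flag-tagged full-length human MGAT2, incubated 1 h at room temperature in 100 mmol/L phosphate pH 7.4 with 2 mmol/L DTT. The substrate solution held 30 μmol/L 2-oleoylglycerol and 10 μmol/L oleoyl-CoA. Diolein product was quantified by RapidFire ESI Q-TOF MS against diolein-d5 internal standard; % inhibition was set relative to with/without-enzyme controls.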

Chain of recombinant human MGAT2 (Q3SYC2 whole entry): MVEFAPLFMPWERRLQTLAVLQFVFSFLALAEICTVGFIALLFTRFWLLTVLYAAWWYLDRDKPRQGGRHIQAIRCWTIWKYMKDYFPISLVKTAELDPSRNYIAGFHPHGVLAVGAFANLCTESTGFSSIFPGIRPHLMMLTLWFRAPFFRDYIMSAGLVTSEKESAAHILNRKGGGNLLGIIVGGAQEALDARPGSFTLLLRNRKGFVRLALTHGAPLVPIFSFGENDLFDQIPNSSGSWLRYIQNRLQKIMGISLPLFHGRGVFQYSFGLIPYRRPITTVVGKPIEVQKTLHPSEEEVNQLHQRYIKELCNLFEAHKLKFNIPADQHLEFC

| Structure (SMILES) | IC50 [nM] |
| --- | --- |
| CNC(=O)c1c2c(nn1-c1ccc(C#N)cn1)C[C@]1(CCc3cc(OCC(F)(F)F)ccc31)NC2=O [II-170] | 46.7 |
| Cc1ccc(-n2nc3c(c2NC(=O)CS(C)(=O)=O)C(=O)N[C@](C)(c2ccc(Cl)cc2F)C3)nc1 [II-176] | 8.32 |
| Cc1ccc(-n2nc3c(c2NC(=O)CS(C)(=O)=O)C(=O)N[C@](C)(c2ccc(N4CC(F)(F)C4)cc2F)C3)nc1 [II-177] | 5.86 |
| N#Cc1ccc(-n2nc3c(c2C(=O)NCCF)C(=O)N[C@@]2(CCc4cc(OCC(F)(F)F)ccc42)C3)nc1 [II-178] | 59.7 |
| N#Cc1ccc(-n2nc3c(c2C(=O)NCCO)C(=O)N[C@@]2(CCc4cc(OCC(F)(F)F)ccc42)C3)nc1 [II-180] | 58.5 |
| CNC(=O)CNC(=O)c1c2c(nn1-c1ccc(C#N)cn1)C[C@]1(CCc3cc(OCC(F)(F)F)ccc31)NC2=O [II-181] | 28.7 |
| CS(C)(=O)=NCCNC(=O)c1c2c(nn1-c1ccc(C#N)cn1)C[C@]1(CCc3cc(OCC(F)(F)F)ccc31)NC2=O [II-182] | 477 |
| N#CCCNC(=O)c1c2c(nn1-c1ccc(C#N)cn1)C[C@]1(CCc3cc(OCC(F)(F)F)ccc31)NC2=O [II-183] | 35.5 |
| CC(F)(F)CNC(=O)c1c2c(nn1-c1ccc(C#N)cn1)C[C@]1(CCc3cc(OCC(F)(F)F)ccc31)NC2=O [II-184] | 4.06 |
| N#Cc1ccc(-n2nc3c(c2C(=O)NCCSC(F)(F)F)C(=O)N[C@@]2(CCc4cc(OCC(F)(F)F)ccc42)C3)nc1 [II-185] | 28.2 |
| CC1(CNC(=O)c2c3c(nn2-c2ccc(C#N)cn2)C[C@]2(CCc4cc(OCC(F)(F)F)ccc42)NC3=O)COC1 [II-186] | 2.92 |
| N#Cc1ccc(-n2nc3c(c2C(=O)NCC2CCO2)C(=O)N[C@@]2(CCc4cc(OCC(F)(F)F)ccc42)C3)nc1 (stereo partly drawn) [II-187] | 24.5 |

The next lines start with the values.

| IC50 [nM] | Structure (SMILES) |
| --- | --- |
| 7.02 | CCOc1ccc2c(c1)CC[C@]21Cc2nn(-c3ccc(C)cn3)c(NC(=O)CS(C)(=O)=O)c2C(=O)N1 [II-159] |
| 7.69 | Cc1ccc(-n2nc3c(c2NC(=O)CS(C)(=O)=O)C(=O)N[C@@]2(CCc4cc(OC(C)C)ccc42)C3)nc1 [II-160] |
| 4.67 | Cc1ccc(-n2nc3c(c2NC(=O)CS(C)(=O)=O)C(=O)N[C@@]2(CCc4cc(OCC(C)(C)F)ccc42)C3)nc1 [II-161] |
| 5.67 | Cc1ccc(-n2nc3c(c2NC(=O)CS(C)(=O)=O)C(=O)N[C@@](c2ccc(OCC(F)(F)F)cc2F)(C(F)(F)F)C3)nc1 [II-162] |
| 6.1 | CS(=O)(=O)CC(=O)Nc1c2c(nn1-c1ccc(C#N)cn1)C[C@]1(CCc3c1ccc(OCC(F)(F)F)c3F)NC2=O [II-163] |
| 7.55 | Cc1ccc(-n2nc3c(c2NC(=O)CS(C)(=O)=O)C(=O)N[C@@]2(CCc4cc(Cl)ccc42)C3)nc1 [II-164] |
| 26.9 | Cc1ccc(-n2nc3c(c2NC(=O)CS(C)(=O)=O)C(=O)N[C@@]2(CCc4ccccc42)C3)nc1 [II-165] |
| 20.8 | CS(=O)(=O)CC(=O)Nc1c2c(nn1CCC1CC1)C[C@]1(CCc3c1ccc(OCC(F)(F)F)c3F)NC2=O [II-166] |
| 3.63 | Cc1cc(-n2nc3c(c2NC(=O)CS(C)(=O)=O)C(=O)N[C@](C)(c2ccc(OCC(F)(F)F)cc2F)C3)no1 [II-167] |
| 7.38 | Cc1cc(-n2nc3c(c2NC(=O)CS(C)(=O)=O)C(=O)N[C@@]2(CCc4cc(OCC(F)(F)F)ccc42)C3)on1 [II-169] |
| 9.64 | Cc1ccc(-n2nc3c(c2C(=O)NCCS(N)(=O)=O)C(=O)N[C@@]2(CCc4cc(OCC(F)(F)F)ccc42)C3)nc1 [II-171] |
| 1.46 | CS(=O)(=O)CC(=O)Nc1c2c(nn1-c1ccc(C#N)cn1)C[C@]1(CCc3cc(C4CC4)ccc31)NC2=O [II-172] |
| 1.34 | CS(=O)(=O)CC(=O)Nc1c2c(nn1CCCOC(F)F)C[C@]1(CCc3cc(OCC(F)(F)F)ccc31)NC2=O [II-173] |
| 25.4 | CS(=O)(=O)CC(=O)Nc1c2c(nn1-c1ccccc1)C[C@]1(CCc3cc(OCC(F)(F)F)ccc31)NC2=O [II-175] |
| 10.1 | N#Cc1ccc(-n2nc3c(c2C(=O)NCC2CC2)C(=O)N[C@@]2(CCc4cc(OCC(F)(F)F)ccc42)C3)nc1 [II-179] |
